Results as given in patent US12622884B2, “Treatment and prevention of glioblastoma” (CONSEJO SUPERIOR DE INVESTIGACIONES CIENTÍFICAS, priority 2018, dated 2026).
Where a name gives a salt, the structure may show the parent alone.

Legend:
[1] = tested on: U-87 gliospheres xenografts; test: Xenograft of U-87 gliospheres in NSG mice; format: in vivo; details: 3 mg/Kg body weight, 5 consecutive days immediately after xenograft, intraperitoneal
Method: FIG. 4.—ICI 118,551 and Propranolol delay the tumor progression of U-87 xenografts in NSG immunodeppressed mice. A Xenograft using U-87 adherent cells: Mice (n=30) were inoculated with 10^6 cells of U-87 glioblastoma cell line, in the flank, as xenografts. Tumor volume was measured every 3 days. In A, when tumors reached around 100 mm^3 volume, mice were divided in 3 groups (n=9-10). One group was treated daily with 10 mg/Kg body weight with propranolol, another group with the same dose of ICI118,551, and the third group only with vehicle (DMSO). Drugs were intraperitoneally injected. […] B Xenograft using U-87 gliospheres: Mice were inoculated with 10^5 spheroids from the glioblastoma cell line U-87. […] The tumors were measured from the moment they were big enough to be sized.
In the case of B, mice were divided in 3 groups of 10 mice, and were treated the first 5 days after xenograft establishment with intraperitoneal injection of propranolol, or ICI118,551 at 3 mg/Kg body, or vehicle. […] From this moment on, tumor size was measured every 2-3 days along 4 weeks, and then the mice were sacrificed.
On the other hand, xenografts using U-87 gliospheres were also used. […] The tumors were measured from the moment they were big enough to be sized.

U-87 xenografts = test: Xenograft of U-87 adherent cells in NSG mice; format: in vivo; details: intraperitoneal; for decrease in the tumor volume: 10 mg/Kg body daily, from tumor volume around 100 mm^3, versus vehicle; for adverse effects: 10 mg/Kg body weight daily, NSG mice
Method: FIG. 4.—ICI 118,551 and Propranolol delay the tumor progression of U-87 xenografts in NSG immunodeppressed mice. A Xenograft using U-87 adherent cells: Mice (n=30) were inoculated with 10^6 cells of U-87 glioblastoma cell line, in the flank, as xenografts. Tumor volume was measured every 3 days. In A, when tumors reached around 100 mm^3 volume, mice were divided in 3 groups (n=9-10). One group was treated daily with 10 mg/Kg body weight with propranolol, another group with the same dose of ICI118,551, and the third group only with vehicle (DMSO). Drugs were intraperitoneally injected. […] B Xenograft using U-87 gliospheres: Mice were inoculated with 10^5 spheroids from the glioblastoma cell line U-87. Mice were divided in 3 groups of 9-10 animals and treated immediately after xenograft for 5 consecutive days with either 3 mg/Kg body weight of propranolol, or ICI 118,551, or only vehicle. The tumors were measured from the moment they were big enough to be sized.
Male 7-8 weeks old NOD scid gamma (NSG) mice were injected in the dorsal flank with a total of either 10^6 cells of U-87 cell line (A), or with 10^5 cells coming from disaggregated gliospheres (B). In the case of A, when tumor size reached 100 mm^3 volume, mice were divided at random in 3 groups, of 9/10 mice each. One group was treated with intraperitoneal daily injection of 10 mg/Kg body of propranolol, other group with the same amount of ICI118,551, and finally, a control group was injected with vehicle. Tumor size was measured by a caliper every 2-3 days. Mice were sacrificed when tumor volume average of the control group reached an end point established on our ethical procedures.
Xenografts were made using U-87 adherent cells: Mice (n=30) were inoculated with 10^6 cells of U-87 glioblastoma cell line, in the flank, as xenografts. Tumor volume was measured every 3 days. When tumors reached around 100 mm^3 volume, mice were divided in 3 groups (n=9-10). One group was treated daily with 10 mg/Kg body weight with propranolol, another group with the same dose of ICI118,551, and the third group only with vehicle (DMSO). Drugs were intraperitoneally injected.

U-87 stem cells = test: Extreme limited dilution assay (ELDA) for oncosphere formation; format: cell-based, human; details: different concentrations; spheres quantified at 14 days
Method: (§1) A: photographs of gliospheres formation after 72 hours of drug treatment. U-87 cells were cultured in medium for gliosphere formation, and either treated with vehicle (control, on the left), or with ICI 118,551, and propranolol at different concentrations from 10 to 100 μM. […] B: Limit dilution assay experiment (ELDA) for oncosphere formation in the presence of different concentrations of ICI 118,551 and propranolol.
(§2) Following the protocol described elsewhere (Diaz-Guerra, E.; Lillo, M. A.; Santamaria, S.; Garcia-Sanz, J. A., Intrinsic cues and hormones control mouse mammary epithelial tree size. FASEB J 2012, 26 (9), 3844-53). Cells were detached from the plate with trypsin (Invitrogen) and plated in complete medium (DMEM/F-12 medium with GlutaMAX) supplemented with B27 (Gibco), 10 ng/ml epidermal growth factor (EGF: Invitrogen) and 10 ng/ml basic fibroblast growth factor (bFGF: Millipore) and they were maintained at 37° C. in 5% CO2. For the ELDA assay cells were dissociated to single cells with trypsin, and seeded at different dilutions (from 100 to 10 for U-87 cells) in sphere complete media following procedures described in Ponti, D et al., (Cancer Res 2005, 65 (13), 5506-11.). The final number of spheres was quantified at 14 days, and the final data and statistical significance was obtained with ELDA software (Hu, Y. et al J Immunol Methods 2009, 347 (1-2), 70-8). […]

U-87 gliospheres = test: Gliosphere formation of U-87 cells under drug treatment; format: cell-based, human; details: 10 to 100 μM; 72 hours of drug treatment
Method: as §1, §2

[2] = tested on: U-87 glioblastoma cell line; test: RT-qPCR of stemness and neural differentiation marker mRNAs in U-87; format: cell-based, human; details: 48 hours; mRNA by RT-qPCR; dose-dependent
Method: FIG. 3.—ICI 118,551 and propranolol decreased stemness biomarker expression in U-87 glioblastoma cell line, but increased the neural differentiation markers. A: The treatment of U-87 with ICI-118,551 and propranolol during 48 hours decreases the expression of stemness associated genes as GD3 synthase, ALDH1, Prominin (CD133), Sox2 and Nanog, whereas B: favors the expression of genes involved in neural cell differentiation (MAP2, GFAP and Nestin). Expression of the corresponding mRNAs was measured by RT-qPCR.
(§3) RNAt was isolated using the Direct-zol RNA MiniPrep Kit (ZymoResearch) from U-87 cells washed with PBS, scraped off the plates and spun down. The pellet was treated with the Tri Reagent and homogenized for 5 min at room temperature before using the MiniPrep Kit as per instructions. The quality and concentration of the RNAt was evaluated by measuring the absorbance at 260, 230 and 280 nm with an ND-1000 spectrophotometer (NanoDrop Technologies, Wilmington, DE, USA). In all cases, the expected 260/280 (˜2.0) and 260/230 (2.0-2.2) ratio values accepted for pure RNA were obtained. To detect the two target miRs, 0.5 μg of the RNAt extracted from the cells was used for hybridization prior to measurement on the dual amperometric platform.
(§4) The qScript microRNA Quantification System (Quanta BioSciences, Inc., Gaithersburg, MD, USA) was used to assess miR-21 and miR-205 expression. In brief, cDNA was synthesized using the qScript microRNA cDNA Synthesis Kit, using 10 ng of initial RNA per PCR reaction. The PCR conditions consisted of an initial activation at 50° C. for 2 min, followed by 40 cycles of 95° C. for 5 s, and 60° C. for 30 s in LightCycler 480 Real-Time PCR System (Roche). The Ct (threshold cycle) value for each primer was normalized to that of RNU6. To assess gene expression, cDNA was synthesized with the transcriptor first strand cDNA synthesis Kit (Roche) under the following PCR conditions: 40 amplification cycles of 95° C. for 10 seconds, 60° C. for 30 seconds and 72° C. for 30 seconds. ACTB was used as a reference gene for normalization and the real-time PCR reactions were performed in triplicate using the PerfeCTa SYBR Green SuperMix (Quanta BioSciences) for miRNAs and the FastStart Universal SYBR Green Master (Roche) for gene expression. The expression level of each gene was determined by the relative standard curve method and the primer sequences for target genes were obtained from the Universal ProbeLibrary Assay Design Center.
However, mRNA from genes involved in neural cell differentiation, such as MAP2, GFAP and nestin (FIG. 3B), were increased in their expression (FIG. 3B). The expression of the corresponding mRNAs was measured by RT-qPCR.

β2-adrenergic receptor = details: reported in the literature; cited from earlier work
[3] = tested on: U87 Glioblastoma Cell Line; test: Expression of miR-21 and its targets PDCD4 and PTEN in U87 cells; format: cell-based, human; details: 48 hours, increasing amounts
Method: FIG. 5. […] Furthermore, ICI increases the expression levels of […] targets such as PDCD4-proapoptotic agents1 (middle)—and PTEN—a glioblastoma suppressor (right).
as §3
as §4, with “ACTB was used as a reference gene for normalization and the real-time PCR reactions were performed in triplicate using the PerfeCTa SYBR Green SuperMix (Quanta BioSciences) for miRNAs and the FastStart Universal SYBR Green Master (Roche) for gene expression.” left out, “Center. […]” for “Center.”

[4] = tested on: human glioblastoma cell line U-87; test: U-87 cell viability by luminescence (ATP-Glo kit, Promega); format: cell-based
Text: FIG. 1.—ICI 118,551 is active as an antitumoral agent decreasing cell viability in the glioblastoma cell line and including the stem cell subpopulation. A: U-87 cell line expresses beta-adrenergic receptors type 2, as shown by confocal microscopy using a monoclonal antibody against human β2 adrenergic receptors (Abcam). B: ICI-118551 decreases viability of the human glioblastoma cell line U-87 either when grown in liquid suspension as oncospheres (gliospheres, stem cells) or in adhesion. Viability was quantified by luminescence using the ATP-Glo kit from Promega. C. β2-adrenergic receptor expression in the human glioblastoma cell line U87 was confirmed by mRNA expression by quantitative PCR in 3D cultures as gliospheres (HUVEC as positive control for β2-adrenergic receptor expression).

SMILES	rate of tumor growth versus vehicle treated mice [1]	decrease in the tumor volume (U-87 xenografts)	adverse effects (U-87 xenografts)	ELDA dilution factor compared to control (U-87 stem cells)	inhibition of gliosphere formation (U-87 gliospheres)	expression of neural cell differentiation genes MAP2, GFAP and nestin [2]	expression of stemness associated genes GD3 synthase, ALDH1, prominin (CD 133), Sox2 and nanog [2]	β2/β1 selectivity ratio (β2-adrenergic receptor)	expression level of PDCD4 [3]	expression level of PTEN [3]	mRNA-21 expression ([3]; compared with Propranolol)	differential sensitivity to the drug, adhesion versus 3D gliospheres ([4]; 2D cells in adhesion compared with 3D gliospheres in suspension)	viability of the cancer stem cells ([4]; 3D gliospheres, low μM concentrations)	viability of U-87 ([4]; different doses, grown in liquid suspension as oncospheres (gliospheres) or in adhesion, ATP-Glo luminescence)
CC(C)NCC(O)COc1cccc2ccccc12 (stereo not shown) [propranolol]	significant delay	around 30%	no adverse effects observed	increases	dose-dependent inhibition	increased	decreased significantly	–	–	–	–	–	–	–
Cc1ccc(OCC(O)C(C)NC(C)C)c2c1CCC2 [ICI 118,551, erythro-D,L-1(methylinden-4-yloxy)-3-isopropylaminobutan-2-ol]	significant delay	around 30%	no adverse effects observed	increases	dose-dependent inhibition	increased	decreased significantly	at least 123	increases	increases	notably decreased	more sensitive the cells grown in adhesion than the 3D gliospheres	strongly affects the viability	decreased the viability
COc1ccc(OC)c(C(O)C(C)NC(C)(C)C)c1 (racemic) [Butoxamine, DL-erythro-α-(2,5-dimethoxyphenyl)-β-t-butyl aminopropanol hydrochloride]	–	–	–	–	–	–	–	at least 17	–	–	–	–	–	–
